This experiment deals with T1, YFP-AtCESA6 cellulose synthase complexes (CSCs) in root epidermal cells (Arabidopsis thaliana, UniProt Q94JQ6).
T1 construct: expressed in transfected cells; host or cells: transgenic Arabidopsis thaliana YFP-AtCESA6 seedlings (total protein extract for DARTS; root epidermal cells for imaging)
As to the kind of experiment: Spinning-disk confocal live-cell imaging of CSC trafficking. In kind it is cell-based. The conditions noted are these: 6 μM. Here is the method:
For SDCM live cell imaging, seedlings were grown vertically for 5 d, and images were taken from the 2nd or 3rd epidermal cell below the first obvious root hair in the root elongation zone. Two thin strips of double-sided adhesive tape were placed on top of glass slides approximately 2 cm apart. 100 μl of ½-strength MS liquid growth medium containing 0.1% DMSO or 6 μM of ES20-1 was applied to the slide, and seedlings were mounted in the liquid medium. A 22×40 mm cover glass was placed on top of the double-sided tape for imaging. For longer term imaging during CESA velocity analysis, seedlings were mounted on a piece of 1-mm thick 0.6% Phytagel pad affixed to the glass slide to minimize compression and liquid evaporation.
To examine the cellular localization of YFP-AtCESA6 and YFP-AtCESA6; ManI-CFP, SDCM imaging was performed using a CSU-X1-A1 Yokogawa scanning unit mounted on an Olympus IX-83 microscope equipped with a 100×/1.4NA UPlanSApo oil objective (Olympus) and an Andor iXon Ultra 897BV EMCCD camera (Andor Technology). YFP and CFP fluorescence was excited with 515-nm and 445-nm laser lines and emission collected through 542/27-nm and 479/40-nm filters, respectively.
For fluorescence recovery after photobleaching (FRAP) experiments, images were collected using a Zeiss Observer Z.1 microscope, equipped with a Yokogawa CSU-X1 head and a 100×/1.46 NA PlanApo objective (Zeiss). For the PM-localized CESA6 FRAP, photobleaching was performed with a Vector scanner (Intelligent Imaging Innovations) with a 515-nm laser line at 100% power and 1 ms/scan. Timelapse images were collected at the PM with a 10-s interval for 64 frames, with photobleaching in a small region (44.2 μm^2) after the 4th frame, and recovery for total 10 min.
Image analysis was performed using ImageJ. For CESA particle density analyses, regions of interest (ROIs) without abundant Golgi signals were chosen using the Freehand selection tool. CESA particles were detected automatically on 8-bit images using the Find Maxima tool with the same noise threshold for all images. CESA particle density for each ROI was calculated by dividing the number of particles by the ROI area. To analyze CESA particle dynamics, 5-min time-lapse series with 5-s intervals were collected. Average intensity projections were generated to identify the trajectories of CSC particles. Image drift was corrected using the StackReg plugin (Thevenaz et al., 1998). Kymographs were generated, and the velocities of CESA particles were measured as the reciprocal of the slope of individual CESA particles in the kymographs. To quantify cortical vesicles, 1 μm z-series stack with 0.2 μm as the step size and 20-s time-lapses were collected. The focal plane at 0.4 μm below the PM was used for cortical SmaCC analysis. Small particles showing motility in time-lapse series were considered to be SmaCCs. For the FRAP assay of PM-localized CSCs, a smaller area (16 μm^2) within the bleached region was used for analyses. The CSC delivery events during the first 5 min of recovery were manually counted according to the criteria described previously (Li et al., Proc. Natl. Acad Sci. USA, 2016, 113, 11348-11353). […] The CSC delivery rate was calculated by dividing the number of delivery events by the measured area and time.

T1 sequence (O48946 whole entry): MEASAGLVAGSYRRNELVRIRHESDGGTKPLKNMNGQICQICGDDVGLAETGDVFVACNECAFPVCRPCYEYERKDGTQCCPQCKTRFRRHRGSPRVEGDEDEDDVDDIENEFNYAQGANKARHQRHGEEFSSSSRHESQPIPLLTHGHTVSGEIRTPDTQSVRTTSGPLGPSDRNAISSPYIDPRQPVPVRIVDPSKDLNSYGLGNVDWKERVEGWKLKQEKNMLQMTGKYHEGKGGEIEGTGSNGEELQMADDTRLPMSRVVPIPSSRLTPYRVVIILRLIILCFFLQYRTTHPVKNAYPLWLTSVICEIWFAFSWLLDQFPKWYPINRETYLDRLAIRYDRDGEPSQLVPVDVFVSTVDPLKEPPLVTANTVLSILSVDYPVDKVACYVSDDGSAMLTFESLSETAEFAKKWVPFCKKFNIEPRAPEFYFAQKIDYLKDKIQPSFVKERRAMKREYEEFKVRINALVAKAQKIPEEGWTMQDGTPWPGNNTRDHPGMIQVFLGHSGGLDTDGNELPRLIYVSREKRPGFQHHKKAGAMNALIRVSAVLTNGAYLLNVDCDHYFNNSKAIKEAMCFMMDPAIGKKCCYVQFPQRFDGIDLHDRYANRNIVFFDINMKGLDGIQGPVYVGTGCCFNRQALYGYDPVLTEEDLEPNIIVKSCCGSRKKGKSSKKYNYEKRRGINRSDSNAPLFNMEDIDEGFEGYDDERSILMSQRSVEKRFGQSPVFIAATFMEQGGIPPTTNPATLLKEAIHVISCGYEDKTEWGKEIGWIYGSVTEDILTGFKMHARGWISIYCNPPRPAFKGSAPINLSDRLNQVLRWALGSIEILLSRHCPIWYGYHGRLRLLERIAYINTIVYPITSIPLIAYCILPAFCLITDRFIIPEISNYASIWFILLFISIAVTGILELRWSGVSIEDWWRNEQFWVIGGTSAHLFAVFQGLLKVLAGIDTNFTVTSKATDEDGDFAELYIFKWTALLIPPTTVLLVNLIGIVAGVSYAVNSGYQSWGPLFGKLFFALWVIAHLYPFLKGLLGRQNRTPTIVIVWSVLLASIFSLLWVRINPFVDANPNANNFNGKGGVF
T1 sequence (Q941L0 whole entry, further chain): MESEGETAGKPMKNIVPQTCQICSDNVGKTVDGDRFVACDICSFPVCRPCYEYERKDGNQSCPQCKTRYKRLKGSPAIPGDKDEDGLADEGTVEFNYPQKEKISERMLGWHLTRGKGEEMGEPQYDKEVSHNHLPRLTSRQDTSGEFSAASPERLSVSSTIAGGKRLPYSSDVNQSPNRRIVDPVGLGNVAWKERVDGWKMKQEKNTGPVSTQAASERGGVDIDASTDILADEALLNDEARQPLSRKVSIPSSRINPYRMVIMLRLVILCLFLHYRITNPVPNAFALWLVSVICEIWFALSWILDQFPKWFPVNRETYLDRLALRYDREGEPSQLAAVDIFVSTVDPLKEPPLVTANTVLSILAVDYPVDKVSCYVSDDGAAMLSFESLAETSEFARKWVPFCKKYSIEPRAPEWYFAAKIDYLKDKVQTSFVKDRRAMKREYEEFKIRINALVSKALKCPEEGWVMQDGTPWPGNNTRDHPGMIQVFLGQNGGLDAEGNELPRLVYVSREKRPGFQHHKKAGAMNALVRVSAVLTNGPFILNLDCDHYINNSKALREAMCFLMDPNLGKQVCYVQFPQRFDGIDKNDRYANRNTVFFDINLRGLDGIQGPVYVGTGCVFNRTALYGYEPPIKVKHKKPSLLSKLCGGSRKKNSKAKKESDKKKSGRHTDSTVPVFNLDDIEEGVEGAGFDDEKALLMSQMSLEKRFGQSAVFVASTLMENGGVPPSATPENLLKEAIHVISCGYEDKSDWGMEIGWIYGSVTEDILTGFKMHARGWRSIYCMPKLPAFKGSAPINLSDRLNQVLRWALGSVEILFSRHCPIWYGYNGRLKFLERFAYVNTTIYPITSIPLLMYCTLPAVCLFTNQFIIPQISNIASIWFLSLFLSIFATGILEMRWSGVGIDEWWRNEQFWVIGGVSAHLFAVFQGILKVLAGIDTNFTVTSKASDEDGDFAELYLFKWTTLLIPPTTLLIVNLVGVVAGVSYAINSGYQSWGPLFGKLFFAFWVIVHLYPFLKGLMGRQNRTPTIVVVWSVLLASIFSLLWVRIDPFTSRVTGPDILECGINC
T1 sequence (Q94JQ6 whole entry): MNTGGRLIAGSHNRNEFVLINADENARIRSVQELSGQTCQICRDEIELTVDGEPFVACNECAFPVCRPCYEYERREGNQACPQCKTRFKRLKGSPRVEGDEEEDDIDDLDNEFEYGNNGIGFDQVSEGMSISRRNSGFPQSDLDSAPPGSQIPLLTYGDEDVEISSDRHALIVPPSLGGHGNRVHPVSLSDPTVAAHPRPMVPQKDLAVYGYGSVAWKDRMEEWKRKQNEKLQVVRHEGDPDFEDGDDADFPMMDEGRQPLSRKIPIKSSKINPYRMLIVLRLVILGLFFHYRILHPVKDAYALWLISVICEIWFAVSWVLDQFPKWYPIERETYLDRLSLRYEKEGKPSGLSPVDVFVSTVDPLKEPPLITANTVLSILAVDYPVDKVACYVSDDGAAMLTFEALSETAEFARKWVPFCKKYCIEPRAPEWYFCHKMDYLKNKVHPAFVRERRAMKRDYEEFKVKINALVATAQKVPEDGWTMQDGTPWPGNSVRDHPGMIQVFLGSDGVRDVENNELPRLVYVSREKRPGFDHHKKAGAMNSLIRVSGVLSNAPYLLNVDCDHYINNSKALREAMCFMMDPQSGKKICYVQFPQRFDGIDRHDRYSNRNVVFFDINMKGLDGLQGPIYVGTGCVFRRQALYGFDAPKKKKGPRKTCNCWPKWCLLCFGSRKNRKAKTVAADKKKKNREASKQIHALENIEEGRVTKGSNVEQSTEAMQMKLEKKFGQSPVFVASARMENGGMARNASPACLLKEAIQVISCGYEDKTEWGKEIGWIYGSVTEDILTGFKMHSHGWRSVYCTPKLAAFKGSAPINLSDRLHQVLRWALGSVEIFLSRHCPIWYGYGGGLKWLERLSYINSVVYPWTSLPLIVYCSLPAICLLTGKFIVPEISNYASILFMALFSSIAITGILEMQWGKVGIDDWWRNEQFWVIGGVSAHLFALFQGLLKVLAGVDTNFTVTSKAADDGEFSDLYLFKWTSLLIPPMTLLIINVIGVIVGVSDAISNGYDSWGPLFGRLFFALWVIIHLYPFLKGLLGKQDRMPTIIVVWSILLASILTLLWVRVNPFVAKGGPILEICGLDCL

With `Cc1ccccc1C(=O)NNC(=S)NC(=O)c1ccccc1` [ES20-1], the “reduction of CSC delivery rate to PM (FRAP)” value (5 min recovery after photobleaching, vs DMSO) is roughly 35%. Besides, where the note is “5 min recovery, mean±SE, n=10 cells”, the “CSC delivery rate to PM (FRAP)” value was 1.41±0.19 particle/μm^2/h. Moreover, the “abundance of cortical SmaCCs” value (10 min, mean±SE, n=24 cells) stood at 7.07±0.34 particle/100 μm^2. The “abundance (density) of CSCs at the PM” value (10 min, mean±SE, n=32 cells) is on record as 0.64±0.03 particle/μm^2. In addition, where the note is “10 min, vs DMSO”, the “decrease of abundance of CSCs at the PM” value is listed as roughly 30% and the “increase of abundance of cortical SmaCCs” value is reported as roughly 30%. Where the note is “30 min, mean±SE, n=325”, the “velocity of CSC particles at the PM” value was determined as 0.152 ± 0.005 ×10⁻⁶ cm/s. Moreover, for the setting “30 min, vs DMSO”, the “decrease of velocity of CSC particles at the PM” value was roughly 35%. In addition, the “integrated fluorescence intensity of Golgi-localized YFP-AtCESA6” value (1 h, mean±SE, n=55) is reported as 8684.50±535.60. Besides, under “1 h, same cell”, the “integrated fluorescence intensity of ManI-CFP” value is on record as “not affected”. Also, the “increase of integrated fluorescence intensity of Golgi-localized YFP-AtCESA6” value (1 h, vs DMSO) is given as “more than 25%”.

Source of the values: patent US11938121B2, “Treatment of infections and biofilm formation using a cellulose synthase inhibitor” (Purdue Research Foundation, priority 2020, dated 2024).
